Patent publication US10472369B2, “Crystalline forms of (6-(1H-indazol-6-yl)-N-[4-(4-(4-morpholinyl)phenyl]imidazo[1,2-A]pyrazin-8-amine) methanesulfonate” (Crystal Pharmatech Co., Ltd., priority 2016, dated 2019)
In brackets after ≈: the same amount, converted by molar mass.

Assays:
[1] = cited from earlier work
[2] = Slurry/stirring in H2O/IPA solvent systems with different water activities, final form by XRPD; assay type: physicochemical; details: 6 days
Protocol: Prior form 7 as starting material was stirred at room temperature in solvent systems with different water activities for 6 days, and tested.
Prior form 3 was stirred at room temperature in solvent systems with different water activities for 4 days, then the solid was tested.

[3] = Particle size distribution (PSD), laser particle size analyzer, wet process; assay type: physicochemical; details: dispersion medium Isopar G
Protocol: The particle size distribution test in the present disclosure is acquired by the S3500 laser particle size analyzer of Microtrac. Microtrac S3500 is equipped with the Sample Delivery Controller. The test is carried out by wet process, and the dispersion medium is Isopar G. The parameters are as follow:
D10: The D10 describes the diameter where 10% of the distribution has a smaller particle size.
D50: The D50 describes the diameter where 50% of the distribution has a smaller particle size. The median is also called D50.
D90: The D90 describes the diameter where 90% of the distribution has a smaller particle size. Unless otherwise specified, the following examples were conducted at room temperature.

[4] = Hygroscopicity by dynamic vapor sorption (DVS); assay type: physicochemical; details: for Weight gain 10% RH / Weight gain 20% RH / Weight gain 30% RH / Weight gain 40% RH / Weight gain 50% RH / Weight gain 60% RH: DVS 0-95%-0 RH cycle at 25° C.
Protocol: Dynamic Vapor Sorption (DVS) is measured via a SMS (Surface Measurement Systems Ltd.) intrinsic DVS. Its control software is DVS-Intrinsic control software, and its analysis software is DVS-Intrinsic Analsis software. Typical Parameters for DVS test are as follows:
Gas and flow rate: N2, 200 mL/min
RH range: 0% RH to 95% RH
Hygroscopicity of form III was measured in dynamic vapor sorption (DVS) instrument using 7.34 mg of form III obtained from example 6. The DVS plot is shown in FIG. 20, and the weight gain of form III at 80% RH is 6.48%.
6.5 mg of prior form 7 was placed in a DVS instrument, and subjected to a cycle of 0-95%-0RH at 25° C., the DVS plot is shown in FIG. 23.
9.2 mg of Form I was placed in a DVS instrument, and subjected to a cycle of 0-95%-0RH at 25° C., the DVS plot is shown in FIG. 24.
3.6 mg of Form II was placed in a DVS instrument and subjected to a cycle of 0-95%-0RH at 25° C., the DVS plot is shown in FIG. 25.

[5] = Solubility of saturated solutions in acetone and tetrahydrofuran by HPLC; details: saturated solution, after 24 hours
[6] = Storage stability (purity and XRPD crystalline form after storage); assay type: physicochemical
Protocol: Form II obtained from example 3 was stored under 25° C./60% RH for 90 days. XRPD patterns were collected before and after stored for 15 days, 30 days and 90 days.
Form III was stored under 25° C./60% RH and 40° C./75% RH for 300 days. XRPD patterns were collected after stored for 15 days, 30 days and 300 days.

[7] = listed as Form II of the present disclosure
[8] = listed as Form I of the present disclosure

Structure (SMILES): CS(=O)(=O)O.CS(=O)(=O)O.c1cn2cc(-c3ccc4cn[nH]c4c3)nc(Nc3ccc(N4CCOCC4)cc3)c2n1 [Prior form 7, reference compound]
- weight gain at 80% RH (prior crystalline forms) ([1]; 80% RH): ~20%
- hygroscopicity under various humidity conditions ([1]; various humidity conditions): very high
- Final crystalline form ([2]; H2O/IPA = 1:99, water activity 0.12, room temperature): Form III of the present
- Final crystalline form ([2]; H2O/IPA = 3:97, water activity 0.3, room temperature): Form III of the present
- Final crystalline form ([2]; H2O/IPA = 6:94, water activity 0.5, room temperature): Form III of the present
- Final crystalline form ([2]; H2O/IPA = 11:89, water activity 0.7, room temperature): Form III of the present
- Final crystalline form ([2]; H2O/IPA = 23:77, water activity 0.9, room temperature): Form III of the present
- Final crystalline form in all experiments ([2]; all water activities, room temperature): converted to form III
- D(10) [3]: 3.41 μm
- D(50) [3]: 9.37 μm
- D(90) [3]: 37.69 μm
- Weight gain 10% RH [4]: 1.68%
- Weight gain 20% RH [4]: 2.78%
- Weight gain 30% RH [4]: 4.61%
- Weight gain 40% RH [4]: 10.04%
- Weight gain 40% RH ([4]; listed as prior form 7): 10%
- Weight gain 50% RH [4]: 11.00%
- Weight gain 60% RH [4]: 11.83%

Structure (SMILES): c1cn2cc(-c3ccc4cn[nH]c4c3)nc(Nc3ccc(N4CCOCC4)cc3)c2n1 [Form II, 6-(1H-indazol-6-yl)-N-[4-(4-morpholinyl)phenyl] imidazo [1,2-a]pyrazin-8-amine]
- Solubility ([5]; Acetone): 26 µg/mL (≈ 63.2 µM)
- Solubility ([5]; Tetrahydrofuran): 18 µg/mL (≈ 43.7 µM)
- D(10) [3, 7]: 4.15 μm
- D(50) [3, 7]: 27.48 μm
- D(90) [3, 7]: 128.7 μm
- Crystalline form after storage ([6]; 25° C./60%RH, 15 days): Form II
- Purity % ([6]; 25° C./60%RH, 15 days): 99.50%
- Crystalline form after storage ([6]; 25° C./60%RH, 30 days): Form II
- Purity % ([6]; 25° C./60%RH, 30 days): 99.78%
- Crystalline form after storage ([6]; 25° C./60%RH, 90 days): Form II
- Purity % ([6]; 25° C./60%RH, 90 days): 99.52%
- Crystalline form after storage ([6]; 25° C./60%RH, initial): Form II
- Purity % ([6]; 25° C./60%RH, initial): 99.64%
- Weight gain 10% RH [4, 7]: 1.41%
- Weight gain 20% RH [4, 7]: 1.98%
- Weight gain 30% RH [4, 7]: 2.34%
- Weight gain 40% RH [4, 7]: 2.65%
- Weight gain 50% RH [4, 7]: 2.95%
- Weight gain 60% RH [4, 7]: 3.35%
- weight gain at 0-70% RH (in words) ([4]; DVS at 25° C., 0-70% RH): doesn't show obvious weight gain

Structure (SMILES): c1cn2cc(-c3ccc4cn[nH]c4c3)nc(Nc3ccc(N4CCOCC4)cc3)c2n1 [Form III, 6-(1H-indazol-6-yl)-N-[4-(4-morpholinyl)phenyl] imidazo [1,2-a]pyrazin-8-amine]
- Crystalline form after storage ([6]; 25° C./60%RH, 15 days): Form III
- Purity % ([6]; 25° C./60%RH, 15 days): 99.71%
- Crystalline form after storage ([6]; 25° C./60%RH, 30 days): Form III
- Purity % ([6]; 25° C./60%RH, 30 days): 99.78%
- Crystalline form after storage ([6]; 25° C./60%RH, 300 days): Form III
- Purity % ([6]; 25° C./60%RH, 300 days): 99.56%
- Crystalline form after storage ([6]; 25° C./60%RH, initial): Form III
- Purity % ([6]; 25° C./60%RH, initial): 99.82%
- Crystalline form after storage ([6]; 40° C./75%RH, 15 days): Form III
- Purity % ([6]; 40° C./75%RH, 15 days): 99.68%
- Crystalline form after storage ([6]; 40° C./75%RH, 30 days): Form III
- Purity % ([6]; 40° C./75%RH, 30 days): 99.73%
- Crystalline form after storage ([6]; 40° C./75%RH, 300 days): Form III
- Purity % ([6]; 40° C./75%RH, 300 days): 99.47%
- Crystalline form after storage ([6]; 40° C./75%RH, initial): Form III
- Purity % ([6]; 40° C./75%RH, initial): 99.82%
- weight gain at 80% RH ([4]; DVS, 25° C., 80% RH): 6.48%
- crystalline form after DVS test (XRPD) ([4]; solid collected after DVS): doesn't change

Structure (SMILES): c1cn2cc(-c3ccc4cn[nH]c4c3)nc(Nc3ccc(N4CCOCC4)cc3)c2n1 [Form I, 6-(1H-indazol-6-yl)-N-[4-(4-morpholinyl)phenyl] imidazo [1,2-a]pyrazin-8-amine]
- Solubility ([5]; Acetone): 61 µg/mL (≈ 148 µM)
- Solubility ([5]; Tetrahydrofuran): 48 µg/mL (≈ 117 µM)
- D(10) [3, 8]: 10.23 μm
- D(50) [3, 8]: 62.54 μm
- D(90) [3, 8]: 240.0 μm
- Weight gain 10% RH [4, 8]: 0.69%
- Weight gain 20% RH [4, 8]: 0.99%
- Weight gain 30% RH [4, 8]: 1.33%
- Weight gain 40% RH [4, 8]: 1.82%
- Weight gain 50% RH [4]: 2.82%
- Weight gain 60% RH [4, 8]: 8.13%
